The record followed here is US12630547B2, “RAS protein degraders, pharmaceutical compositions thereof, and their therapeutic applications” (BioTheryX, Inc., priority 2019, dated 2026).

A value given as a limit tells only on which side of the number the result lay.

Common to all, as to format: cell-based
The subject of one assay is MOLM-13 cells. Nature of the assay: Cell viability assay (CELLTITER-GLO), MOLM-13 cells. As to conditions: Homo sapiens, MOLM-13, 72 h; Table 2; compound at 10 μM, 3 days; read-out: Effect on MOLM-13 cell viability (% DMSO). In short, it runs like this: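 Viability, as % of DMSO control, was read by CellTiter-Glo luminescence after a 3-day compound exposure (single dose of 10 μM or 1 μM) at 37 °C. Cells plated at 4,000/well in RPMI 1640 with 10% FBS. Results reported as categories A <10%, B 10–<25%, C 25–<50%, D ≥50%.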
(Cellular ATP, detected with luciferase, serves as a proxy for viable cell number.)

Another assay deals with H358 cells. The experiment in a line: Cell viability assay (CELLTITER-GLO), H358 cells. The conditions noted are these: Table 4; 3 days. The method, then: (§1) MOLM-13 cells, MV-4-11 cells, H23, and H358 cells were independently cultured in RPMI 1640 media supplemented with 10% fetal bovine serum, streptomycin and penicillin. The cells were plated in white walled 96-well plates at 4,000 cells/well. The cells were incubated in DMSO (control) or a compound for 3 days at 37° C. under 5% CO2. A CELLTITER-GLO® reagent (100 μL) was then added to each well. After a 10 min incubation with shaking, luminescence was measured using an ENVISION® multimode plate reader.
In Tables 1 and 2, each compound was tested at 10 μM; and in Table 3, each compound was tested at 1 μM. In Tables 1 to 3, the cell viability values as % DMSO are reported as “A,” “B,” “C,” or “D;” where “A” represents a % viability value of less than 10%; “B” represents a % viability value of no less than 10% and less than 25%; “C” represents a % viability value of no less than 25% and less than 50%; and “D” represents a % viability value of no less than 50%. Compound A is
(§2) IC50 values are summarized in Table 4, where “A” represents an IC50 value of no greater than 1 μM, “B” represents an IC50 value of greater than 1 μM and no greater than 5 μM, “C” represents an IC50 value of greater than 5 μM and no greater than 10 μM, and “D” represents an IC50 value of greater than 10 μM.

The next assay concerns H23 cells. The experiment in a line: Cell viability assay (CELLTITER-GLO), H23 cells. The conditions noted are these: Table 4; 3 days. The method, then:
as §1, §2

As to `C=CC(=O)N1CCN(c2ncnc3c(F)c(-c4c(F)cccc4OCCCCCCCNCc4ccc(OCc5scc6c5CN([C@H]5CCC(=O)NC5=O)C6=O)cc4)c(Cl)cc23)CC1` [Compound 24, (3S)-3-(1-((4-(((7-(2-(4-(4-Acryloylpiperazin-1-yl)-6-chloro-8-fluoroquinazolin-7-yl)-3-fluorophenoxy)heptyl)amino)methyl)phenoxy)methyl)-4-oxo-4H-thieno[3,4-c]pyrrol-5(6H)-yl)piperidine-2,6-dione], the viability (as a rule, the share of living cells, or the viability signal relative to a control) at 10 µM in the assay with MOLM-13 cells is below 10%. Moreover, in the assay with H358 cells, the “Inhibition of H358 cells, IC50 (class)” value was “B′”. For the same molecule, in the assay with H23 cells, the “Inhibition of H23 cells, IC50 (class)” value is listed as “B′”.
With `C=CC(=O)N1CCN(c2ncnc3c(F)c(-c4cc(OCCOCCOCCC(=O)NCCNc5cccc6c5CN(C5CCC(=O)NC5=O)C6=O)ccc4F)c(Cl)cc23)CC1` (stereo not drawn) [Compound 38, 3-(2-(2-(3-(4-(4-Acryloylpiperazin-1-yl)-6-chloro-8-fluoroquinazolin-7-yl)-4-fluorophenoxy)ethoxy)ethoxy)-N-(2-((2-(2,6-dioxopiperidin-3-yl)-1-oxoisoindolin-4-yl)amino)ethyl)propanamide], in the assay on MOLM-13 cells, the viability at 10 µM was at least 50%. In addition, the “Inhibition of H358 cells, IC50 (class)” value in the assay on H358 cells is recorded as “D′”. Besides, the “Inhibition of H23 cells, IC50 (class)” value in the assay on H23 cells is listed as “D′”.
`C=CC(=O)N1CC(N2Cc3ccc(-c4cc(O)cc5ccccc45)cc3N(CCOCCOCCOCCNc3ccc4c(c3)C(=O)N(C3CCC(=O)NC3=O)C4=O)C2=O)C1` (stereo not drawn) [Compound 40, 5-((2-(2-(2-(2-(3-(1-Acryloylazetidin-3-yl)-7-(3-hydroxynaphthalen-1-yl)-2-oxo-3,4-dihydroquinazolin-1(2H)-yl)ethoxy)ethoxy)ethoxy)ethyl)amino)-2-(2,6-dioxopiperidin-3-yl)isoindoline-1,3-dione]: the viability at 10 µM in the assay on MOLM-13 cells was below 10%. Moreover, the “Inhibition of H358 cells, IC50 (class)” value in the assay with H358 cells is recorded as “B′”. Further, the “Inhibition of H23 cells, IC50 (class)” value in the assay with H23 cells is listed as “B′”.
In the case of `O=C1CCC(N2Cc3c(cc(F)cc3C3CCN(CCCCCCCOc4cccc(F)c4-c4c(Cl)cc5c(N6CCN(C(=O)c7cnc[nH]7)CC6)ncnc5c4F)CC3)C2=O)C(=O)N1` (stereo not drawn) [Compound 41, 3-(4-(1-(7-(2-(4-(4-(1H-Imidazole-5-carbonyl)piperazin-1-yl)-6-chloro-8-fluoroquinazolin-7-yl)-3-fluorophenoxy)heptyl)piperidin-4-yl)-6-fluoro-1-oxoisoindolin-2-yl)piperidine-2,6-dione], in the assay with MOLM-13 cells, the viability at 10 µM is below 10%. The “Inhibition of H358 cells, IC50 (class)” value in the assay with H358 cells is reported as “B′”. In the assay with H23 cells, the “Inhibition of H23 cells, IC50 (class)” value is listed as “B′”.
Take `CCC(=O)N1CCN(c2ncnc3c(F)c(-c4c(F)cccc4OCCOCCOCCOCCNc4cccc5c4C(=O)N(C4CCC(=O)NC4=O)C5=O)c(Cl)cc23)CC1` (stereo not drawn) [Compound 42, 4-((2-(2-(2-(2-(2-(6-Chloro-8-fluoro-4-(4-propionylpiperazin-1-yl)quinazolin-7-yl)-3-fluorophenoxy)ethoxy)ethoxy)ethoxy)ethyl)amino)-2-(2,6-dioxopiperidin-3-yl)isoindoline-1,3-dione]: the viability at 10 µM in the assay with MOLM-13 cells is at least 50%. For the same molecule, the “Inhibition of H358 cells, IC50 (class)” value in the assay on H358 cells was “D′”. For the same molecule, in the assay with H23 cells, the “Inhibition of H23 cells, IC50 (class)” value is listed as “D′”.
Consider `C=C(Cl)C(=O)N1CCN(c2ncnc3c(F)c(-c4c(F)cccc4OCCCCCCCN4CCC(c5cc(F)cc6c5CN(C5CCC(=O)NC5=O)C6=O)CC4)c(Cl)cc23)CC1` (stereo not drawn) [Compound 43, 3-(4-(1-(7-(2-(6-Chloro-4-(4-(2-chloroacryloyl)piperazin-1-yl)-8-fluoroquinazolin-7-yl)-3-fluorophenoxy)heptyl)piperidin-4-yl)-6-fluoro-1-oxoisoindolin-2-yl)piperidine-2,6-dione], for which, in the assay with MOLM-13 cells, the viability at 10 µM was below 10%. For the same molecule, in the assay with H358 cells, the “Inhibition of H358 cells, IC50 (class)” value is given as “A′”. For the same molecule, the “Inhibition of H23 cells, IC50 (class)” value with H23 cells is recorded as “A′”.
For `CCC(=O)N1CC(N2Cc3ccc(-c4cc(O)cc5ccccc45)cc3N(CCCCCCCN3CCC(c4cc(F)cc5c4CN(C4CCC(=O)NC4=O)C5=O)CC3)C2=O)C1` (stereo not drawn) [Compound 44, 3-(6-Fluoro-4-(1-(7-(7-(3-hydroxynaphthalen-1-yl)-2-oxo-3-(1-propionylazetidin-3-yl)-3,4-dihydroquinazolin-1(2H)-yl)heptyl)piperidin-4-yl)-1-oxoisoindolin-2-yl)piperidine-2,6-dione], in the assay with MOLM-13 cells, the viability at 10 µM is below 10%. The “Inhibition of H358 cells, IC50 (class)” value in the assay on H358 cells is listed as “C′”. Also, the “Inhibition of H23 cells, IC50 (class)” value in the assay with H23 cells is listed as “B′”.
Take `C=CC(=O)N1CC(N2Cc3ccc(-c4cc(O)cc5ccccc45)cc3N(CCOCCOCCNc3cccc4c3C(=O)N(C3CCC(=O)NC3=O)C4=O)C2=O)C1` (stereo not drawn) [Compound 45, 4-((2-(2-(2-(3-(1-Acryloylazetidin-3-yl)-7-(3-hydroxynaphthalen-1-yl)-2-oxo-3,4-dihydroquinazolin-1(2H)-yl)ethoxy)ethoxy)ethyl)amino)-2-(2,6-dioxopiperidin-3-yl)isoindoline-1,3-dione]: the viability at 10 µM in the assay with MOLM-13 cells is at least 50%. The “Inhibition of H358 cells, IC50 (class)” value in the assay on H358 cells is listed as “C′”. Moreover, the “Inhibition of H23 cells, IC50 (class)” value in the assay with H23 cells was “B′”.
On to `CCC(=O)N1CC(N2Cc3ccc(-c4cc(O)cc5ccccc45)cc3N(CCNCCCCCCCN3CCC(c4cc(F)cc5c4CN(C4CCC(=O)NC4=O)C5=O)CC3)C2=O)C1` (stereo not drawn) [Compound 46, 3-(6-Fluoro-4-(1-(7-((2-(7-(3-hydroxynaphthalen-1-yl)-2-oxo-3-(1-propionylazetidin-3-yl)-3,4-dihydroquinazolin-1(2H)-yl)ethyl)amino)heptyl)piperidin-4-yl)-1-oxoisoindolin-2-yl)piperidine-2,6-dione], for which the viability at 10 µM in the assay on MOLM-13 cells is at least 50%. The “Inhibition of H358 cells, IC50 (class)” value in the assay with H358 cells is reported as “D′”. The “Inhibition of H23 cells, IC50 (class)” value with H23 cells is recorded as “D′”.
For `C=CC(=O)N1C[C@H](C)N(c2nc(OCCOCCOCCOCCNc3cccc4c3C(=O)N(C3CCC(=O)NC3=O)C4=O)nc3c(F)c(-c4c(O)cccc4F)c(Cl)cc23)C[C@H]1C` (stereo partly drawn) [Compound 58, 4-((2-(2-(2-(2-((4-((2S,5R)-4-Acryloyl-2,5-dimethylpiperazin-1-yl)-6-chloro-8-fluoro-7-(2-fluoro-6-hydroxyphenyl)quinazolin-2-yl)oxy)ethoxy)ethoxy)ethoxy)ethyl)amino)-2-(2,6-dioxopiperidin-3-yl)isoindoline-1,3-dione], the viability at 10 µM in the assay with MOLM-13 cells was below 10%. The “Inhibition of H358 cells, IC50 (class)” value with H358 cells is recorded as “B′”. In addition, in the assay with H23 cells, the “Inhibition of H23 cells, IC50 (class)” value was “B′”.
As for `CCS(=O)(=O)N1CCN(c2ncnc3c(F)c(-c4c(F)cccc4OCCCCCCCN4CCC(c5cc(F)cc6c5CN(C5CCC(=O)NC5=O)C6=O)CC4)c(Cl)cc23)CC1` (stereo not drawn) [Compound 59, 3-(4-(1-(7-(2-(6-Chloro-4-(4-(ethylsulfonyl)piperazin-1-yl)-8-fluoroquinazolin-7-yl)-3-fluorophenoxy)heptyl)piperidin-4-yl)-6-fluoro-1-oxoisoindolin-2-yl)piperidine-2,6-dione], the viability at 10 µM with MOLM-13 cells is below 10%. In addition, in the assay on H358 cells, the “Inhibition of H358 cells, IC50 (class)” value is “B′”. For the same molecule, the “Inhibition of H23 cells, IC50 (class)” value in the assay with H23 cells is recorded as “B′”.
Consider `CCC(=O)N1CCN(c2ncnc3c(F)c(-c4c(F)cccc4OCCCCCCCCCN4CCC(c5cc(F)cc6c5CN(C5CCC(=O)NC5=O)C6=O)CC4)c(Cl)cc23)CC1` (stereo not drawn) [Compound 61, 3-(4-(1-(9-(2-(6-Chloro-8-fluoro-4-(4-propionylpiperazin-1-yl)quinazolin-7-yl)-3-fluorophenoxy)nonyl)piperidin-4-yl)-6-fluoro-1-oxoisoindolin-2-yl)piperidine-2,6-dione], for which the viability at 10 µM in the assay with MOLM-13 cells was below 10%. Also, in the assay on H358 cells, the “Inhibition of H358 cells, IC50 (class)” value is given as “B′”. Also, in the assay with H23 cells, the “Inhibition of H23 cells, IC50 (class)” value is recorded as “B′”.
As for `C=CC(=O)N1CCN(c2ncnc3c(F)c(-c4c(F)cccc4OCCCNCc4ccc(COc5cccc6c5CN([C@H]5CCC(=O)NC5=O)C6=O)cc4)c(Cl)cc23)CC1` [Compound 62, (3S)-3-(4-((4-(((3-(2-(4-(4-Acryloylpiperazin-1-yl)-6-chloro-8-fluoroquinazolin-7-yl)-3-fluorophenoxy)propyl)amino)methyl)benzyl)oxy)-1-oxoisoindolin-2-yl)piperidine-2,6-dione], the viability at 10 µM with MOLM-13 cells is below 10%. Further, the “Inhibition of H358 cells, IC50 (class)” value in the assay on H358 cells was “B′”. Also, in the assay on H23 cells, the “Inhibition of H23 cells, IC50 (class)” value was “B′”.
On to `CCC(=O)N1CCN(c2ncnc3c(F)c(-c4c(F)cccc4OCCCNCc4ccc(COc5cccc6c5CN([C@H]5CCC(=O)NC5=O)C6=O)cc4)c(Cl)cc23)CC1` [Compound 63, (3S)-3-(4-((4-(((3-(2-(6-Chloro-8-fluoro-4-(4-propionylpiperazin-1-yl)quinazolin-7-yl)-3-fluorophenoxy)propyl)amino)methyl)benzyl)oxy)-1-oxoisoindolin-2-yl)piperidine-2,6-dione], for which, in the assay with MOLM-13 cells, the viability at 10 µM lay within 10 to 25%. In addition, the “Inhibition of H358 cells, IC50 (class)” value in the assay on H358 cells is given as “C′”. The “Inhibition of H23 cells, IC50 (class)” value in the assay on H23 cells is “C′”.
